Assay results reported in paper PMC11001712, “Epiberberine: a potential rumen microbial urease inhibitor to reduce ammonia release screened by targeting UreG” (Applied Microbiology and Biotechnology, 2024).
Like-named read-outs stand apart in the source and are kept apart here.

Key:
(UniProt A0A6M3RDS9) = experiment: UreG GTPase activity (Malachite Green Phosphate Assay); type: biochemical, rumen microorganisms of dairy cows; details: alkaloid 0, 6.25, 12.5, 25, 50 and 100 μM; triplicate; read-out: IC50 against UreG GTPase activity
(UniProt A0A6M3RDS9), sequence (A0A6M3RDS9 1-203): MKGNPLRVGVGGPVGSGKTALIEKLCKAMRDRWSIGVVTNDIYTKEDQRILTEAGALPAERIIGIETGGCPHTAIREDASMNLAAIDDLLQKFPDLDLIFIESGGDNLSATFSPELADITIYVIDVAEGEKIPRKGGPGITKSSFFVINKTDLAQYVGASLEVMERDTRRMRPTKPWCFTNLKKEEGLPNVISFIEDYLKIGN

UreG [1] = experiment: as above; type: biochemical, rumen microorganisms of dairy cows; details: for IC50: alkaloid 0, 6.25, 12.5, 25, 50 and 100 μM, triplicate, read-out: IC50 against UreG GTPase activity
[2] = tested on: urease of ruminal microbial crude protein; experiment: Urease activity of ruminal microbial crude protein (phenol/hypochlorite); type: biochemical, rumen microorganisms; details: Fig. 5A
Protocol: Ruminal microbial crude protein was collected by ultrasonication and centrifugation following a previously established method (Zhang et al. [2020b]). The urease activity of ruminal microbial crude protein was determined based on the amount of ammonia decomposed by urea through a modified phenol/hypochlorite reaction method (Krallmann-Wenzel [1985]), in which the urease activity without alkaloid and urea was set at 0, and the urease activity without alkaloid was set at 100%. The inhibition rate of alkaloid to inhibit urease activity was calculated by the following formula: Inhibitionrate%=1-A-B/C-D×100 where A represents the absorbance value of urease activity with alkaloid, B represents the absorbance value of urease activity with alkaloid but without urea, C represents the absorbance value of urease activity without alkaloid, and D represents the absorbance value of urease activity without alkaloid and urea. Each measurement was performed in triplicate.

[3] = acute toxicity; ref Yi et al. [2013]; cited from earlier work
Helicobacter pylori = tested on: Helicobacter pylori; set-up: method as in Li et al. [2018]; details: antibacterial study and urease activity in vivo; ref Li et al. [2018]; cited from earlier work
urease = tested on: urease; set-up: method as in Tan et al. [2017]; details: ref Tan et al. [2017]; cited from earlier work
[4] = rat, in vivo, po; cited from earlier work
[5] = tested on: rumen microbial urease (rumen fluid); experiment: Ruminal microbial fermentation in vitro (NH3 and urea); type: cell-based, rumen microorganisms; details: 15 mM urea; for Decrease in NH3 concentration: 12 h of incubation
Protocol: The study of ruminal microbial fermentation consisted of a control group and 3 epiberberine treatment groups, each containing 70 mL fresh rumen fluid and 140 mL anaerobic medium (Zhang et al. [2020c]). Epiberberine treatment groups with the final concentration of 2, 20, and 200 μM were pre-incubated in an anaerobic chamber at 39 °C for 15 min. Immediately after inoculation, 10 mL aliquots of mixed solution were transferred into Hungate tubes, urea with a final concentration of 15 mM was added into each tube. Three tubes were immediately collected from each group as 0 h samples; the others were sealed with rubber stoppers and cultured in an incubator. Samples were collected at 1, 2, 4, 8, and 12 h of incubation, with 3 tubes in each group. The collected tubes were immediately placed on ice to slow down fermentation; 400 μL of sample solution was mixed with 800 μL metaphosphoric acid solution (25% w/v) and centrifuged at 12,000 × g for 5 min. The supernatant was collected for the detection of NH3 and urea. NH3 content was measured by a modified phenol/hypochlorite reaction method. Urea concentration was determined using the diacetyl monoxime method kit following the manufacturer’s instructions (Jiancheng Bioengineering, Nanjing, China).

[6] = cited from earlier work
UreG [7] = details: from trend of Km and Vmax with alkaloid concentration
Protocol: The kinetics assay of UreG by alkaloid was carried out by Michaelis–Menten equation, and the values of Michaelis–Menten constants (Km and Vmax) were calculated from the Lineweaver–Burk plots through the software of GraphPad Prism. The inhibition with various concentrations of alkaloids (0, 15.6, 62.5, and 250 µM) was measured at different concentrations of GTP substrate (0, 12.5, 25, 50, 100, and 200 µM).

UreG [8] = experiment: Circular dichroism spectroscopy of UreG secondary structure; set-up: species or system rumen microorganisms of dairy cows; details: 233 μg/mL UreG, 88 μM alkaloid
Protocol: The CD spectra of UreG were recorded using Chirascan Plus spectrometer (Applied Photophysics Ltd., Surrey, UK) equipped with a 1-mm quartz cell, at measurement range between 190 and 260 nm, with 1 nm data pitch and bandwidth. To reduce interference from the background solution, 233 µg/mL UreG and 88 µM alkaloid were prepared using distilled water. The final CD spectrum of UreG was obtained by subtracting the background spectrum (distilled water or alkaloid) from the sample spectrum. The secondary structure proportions (α-helix, β-sheet, β-turn, and random coil) in UreG were calculated using CDNN (v.2.1) software (Applied Photophysics Ltd., Leatherhead, UK).

UreG [9] = experiment: Isothermal titration calorimetry of nickel binding to UreG in presence of alkaloid; set-up: species or system rumen microorganisms of dairy cows; details: for Effect on KD value between nickel and UreG / Effect on N value (nickel: UreG): 27 μM UreG, 1500 μM NiSO4, 238 μM alkaloid
Protocol: The inhibition mechanism of UreG by alkaloid was explored using ITC and CD spectroscopy, to reveal the effects of alkaloid on the combination of nickel towards UreG and the secondary structure of UreG. ITC measurements were carried out with an AutoITC200 microcalorimeter (GE, MA, USA) as described previously (Zhang et al. [2020a]). Briefly, 27 µM UreG was titrated with 1500 µM NiSO4 in the present of 238 µM alkaloid. The titration curve was fitted with the one-site binding model, and the final data was analyzed by ITC Analysis Module in the software of Origin 7.0 (OriginLab, MA, USA).

[10] = tested on: urease of Helicobacter pylori; set-up: method as in Li et al. [2016]; details: ref Li et al. [2016]; cited from earlier work

**Q.** With `COc1cc2c(cc1OC)-c1cc3ccc(OC)c(OC)c3c[n+]1CC2` [Palmatine chloride] as the molecule, how does the IC50 ((UniProt A0A6M3RDS9)) read?
**A.** The IC50 was 94.8 µM.

**Q.** With `COc1cc2c(cc1O)CC[n+]1cc3c(OC)c(OC)ccc3cc1-2` [Jatrorrizine chloride] as the molecule, how does the IC50 (UreG [1]) read?
**A.** Its IC50 is 60.1 µM.

**Q.** With `CC(=O)NO` [AHA, acetohydroxamic acid, reference compound] as the molecule, how does the “Inhibition rate of urease activity against ruminal microbial crude protein” value [2] read?
**A.** Its value is 40%.

**Q.** What about the “Inhibition rate of UreG GTPase activity” value (UreG [1]; Fig. 1A screening) of the same molecule?
**A.** The value was “little effect”.

**Q.** With `COc1cc2c(cc1OC)-c1cc3ccc(OC)c(OC)c3c[n+]1CC2` [palmatine] as the molecule, how does the Median lethal dose [3] read?
**A.** The Median lethal dose was 1533.7 mg/kg.

**Q.** Which “Inhibitory effect on Helicobacter pylori among the 5 major protoberberine alkaloids” value (Helicobacter pylori) does the source give for `c1c2c(cc3c1OCO3)-c1cc3ccc4c(c3c[n+]1CC2)OCO4` [coptisine] here?
**A.** The value was “strongest inhibitory effect”.

**Q.** Which results are given for `COc1cc2c(cc1OC)-c1cc3ccc4c(c3c[n+]1CC2)OCO4` [epiberberine]?
**A.** Inhibitory potential against urease based on IC50 (rank among 5 alkaloids) (urease): lowest IC50 value; Inhibition rate of urease activity against ruminal microbial crude protein [2]: significantly higher than that of berberine chloride and AHA; Median lethal dose [3]: 1360.0 mg/kg; Detection in urine, feces and bile [4]: not detected; Urea remaining during fermentation ([5]; 2 μM, after 8 h of incubation): completely decomposed; Decrease in NH3 concentration ([5]; 20 μM): 13.1%; Decrease in NH3 concentration ([5]; 200 μM): 15.6%; Oral bioavailability ([6]; rat, in vivo, po): 14.5%; Type of inhibition of UreG (UreG [7]): uncompetitive inhibition type; Decrease in the α-helix content of UreG (UreG [8]): ~ 56%; Increasement in the β-sheet content of UreG (UreG [8]): ~ 105%; Effect on KD value between nickel and UreG (UreG [9]): increased; Effect on N value (nickel: UreG) (UreG [9]): decreased; Weaker binding of nickel and UreG compared to that of berberine chloride (UreG [9]; 238 μM alkaloid): 10.8 fold; IC50 ((UniProt A0A6M3RDS9)): 56.9 µM

**Q.** Which results are given for `c1c2c(cc3c1OCO3)-c1cc3ccc4c(c3c[n+]1CC2)OCO4` [Coptisine chloride]?
**A.** IC50 (UreG [1]): 86.6 µM; Inhibition rate of UreG GTPase activity relative to coptisine (UreG [1]; ratio of inhibition rates): 2.5 times

**Q.** Which “Type of inhibition of UreG” value (UreG [7]) does the source give for `COc1ccc2cc3[n+](cc2c1OC)CCc1cc2c(cc1-3)OCO2` [berberine chloride] here?
**A.** The value was “mixed-type inhibitor”.

**Q.** And the “Secondary structural content changes of UreG” value (UreG [8])?
**A.** Its value is “slight changes”.

**Q.** What about the “Effect on KD value between nickel and UreG” value (UreG [9]) of the same molecule?
**A.** Its value is “slightly altered”.

**Q.** And the “Effect on N value (nickel: UreG)” value (UreG [9])?
**A.** The value was “slightly altered”.

**Q.** And the IC50 ((UniProt A0A6M3RDS9))?
**A.** The IC50 was 43.2 µM.

**Q.** For `COc1ccc2cc3[n+](cc2c1OC)CCc1cc2c(cc1-3)OCO2` [berberine], which “Inhibitory potential against urease based on IC50 (rank among 5 alkaloids)” value (urease) is on record?
**A.** Its value is “weakest one among the 5 alkaloids”.

**Q.** What about the “Inhibitory activity against urease of Helicobacter pylori” value [10] of the same molecule?
**A.** The value was “little inhibitory activity”.

**Q.** What about the Oral bioavailability ([6]; rats, ref Chen et al. [2017]) of the same molecule?
**A.** Its Oral bioavailability is under 1%.
